# Assay results from PubChem BioAssay AID754 (Emory University Molecular Libraries Screening Center, 2007).
# pIC50: −log10 of the molar value. Calls of active or inactive are those of the source.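 The calls were made as follows: active = IC50 for lowering Her2 protein in breast cancer cells at or below a set limit; inactive = IC50 above that limit.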
# Tested on: SKBr3 Her2 cytoblot, chemiluminescence, 24 h
# Assay: reduction of cellular Her2 levels – SKBr3 cells, cytoblot, chemiluminescence, mechanism study for Hsp90 inhibitor project, dose response (AID 754)
# Conditions: top dose 10 µM
Compound,IC50,pIC50
Nc1cc2ccccc2c(O)c1O,> 10 µM (inactive),–
Nc1cc(N)c2cccnc2c1O,> 10 µM (inactive),–
CC(CCN(C)C)Nc1cc(O)cc2cccnc12 (stereo not given),> 10 µM (inactive),–
Nc1ccc(O)c2ncccc12,> 10 µM (inactive),–
CC(C)NCCCC(C)Nc1cc(O)cc2cccnc12 (stereo not given),> 10 µM (inactive),–
NCCCCCNc1cc(O)cc2cccnc12,> 10 µM (inactive),–
CC(C)NCCCCCNc1cc(O)cc2cccnc12,> 10 µM (inactive),–
CCN(CC)CCCNc1cc(OC)c(Nc2ccccc2)c2cccnc12,> 10 µM (inactive),–
Nc1cc2c(c(O)c1O)C(=O)c1ccccc1C2=O,> 10 µM (inactive),–
CCN(CC)CCCC(C)Nc1cc(O)cc2cccnc12 (stereo not given),> 10 µM (inactive),–
Nc1cc(O)cc2cccnc12,–,> 6.20
CCC(C)NCCNc1cc(OC)cc2cccnc12 (stereo not given),> 10 µM (inactive),–
O=[N+]([O-])c1cc(O)cc2cccnc12,> 10 µM (inactive),–

# Same assay, conditions: top dose 30 µM
Compound,pIC50,IC50
CCn1nc(-c2ccccc2)nc2c(=O)n(C)c(=O)nc1-2,5.56,–
CCn1c(CSc2nnc(-c3cccnc3)n2-c2ccccc2C)nc2cc(C(=O)O)ccc21,5.50,–
Cn1ncnc2c(=O)n(C)c(=O)nc1-2,> 5.73,–
Cc1c(-c2nn(C)c(=O)c3ccccc23)oc2ccc(F)cc2c1=O,–,> 30 µM (inactive)
COc1cccc2c1C(=O)c1c(O)c3c(c(O)c1C2=O)C[C@@](O)(C(=O)CO)C[C@@H]3O[C@H]1C[C@H](N)[C@H](O)[C@H](C)O1,–,> 30 µM (inactive)
COc1cccc2c1C(=O)c1c(O)c3c(c(O)c1C2=O)C[C@@](O)(C(C)=O)C[C@@H]3O[C@H]1C[C@H](N)[C@H](O)[C@H](C)O1,4.53,–
N#Cc1c(N2CCCC2)nc(N)c2c(N)nc(N3CCCC3)cc12,–,> 30 µM (inactive)
C[C@H]1CCC[C@H](O)CCCCCc2cc(O)cc(O)c2C(=O)O1,4.55,–
C[C@H]1CCCC(=O)CCCCCc2cc(O)cc(O)c2C(=O)O1,–,> 30 µM (inactive)
Oc1ccc(-c2nc(-c3ccc(O)c(O)c3)cs2)cc1,–,> 30 µM (inactive)
CC(Cc1ccc(O)c(O)c1)C(C)Cc1ccc(O)c(O)c1 (stereo not given),–,> 30 µM (inactive)
CCn1c(CSc2nnc3ccccn23)nc2cc(C(=O)O)ccc21,–,> 30 µM (inactive)
O=C1c2ccccc2-c2onc3ccc(NCCCn4ccnc4)c1c23,–,> 30 µM (inactive)
CCc1cc(-c2[nH]ncc2-c2ccc3c(c2)OCO3)c(O)cc1O,–,> 30 µM (inactive)
CCn1nc(-c2cccs2)nc2c(=O)n(C)c(=O)nc1-2,> 5.73,–

# Same assay, conditions: top dose 50 µM
row,Compound,IC50
1,Nc1cccc2cc(O)ccc12,> 50 µM (inactive)
2,Cc1[nH]c2c(N)cccc2c1C,> 50 µM (inactive)
3,COc1cc(NCCCN(CC(C)C)CC(C)C)c2ncccc2c1Cl,> 50 µM (inactive)
4,COc1cc(NCCN(CC(C)C)CC(C)C)c2ncccc2c1,> 50 µM (inactive)
5,COc1cc(N)c2ncccc2c1,> 50 µM (inactive)
6,CCN(CC)CCCNc1cc(OC)cc2ccc(OC)nc12,> 50 µM (inactive)
7,O=[N+]([O-])c1cc(S(=O)(=O)Nc2ccc(F)c(-c3c(O)ccc4c3OCO4)c2)ccc1Cl,> 50 µM (inactive)
8,Cc1ccc(S(=O)(=O)Nc2ccc(F)c(-c3c(O)ccc4c3OCO4)c2)cc1,> 50 µM (inactive)
9,CCCC(C)N(CC)CCNc1cc(OC)cc2cccnc12 (stereo not given),> 50 µM (inactive)
10,COc1cc(NC(C)CCCNC(C)C)c2ncccc2c1OC (stereo not given),> 50 µM (inactive)
11,COc1cc(NS(=O)(=O)c2ccc([N+](=O)[O-])cc2[N+](=O)[O-])c2ncccc2c1,> 50 µM (inactive)
12,Nc1ccc(O)c2ncccc12,> 50 µM (inactive)
13,COc1cc(NCCCC(C)N)c2nccc(Cl)c2c1 (stereo not given),> 50 µM (inactive)
14,COc1cc(NC(C)CCCN)c2ncccc2c1 (stereo not given),> 50 µM (inactive)
15,COc1cc(NCC(O)CN(CC(C)C)CC(C)C)c2nc(C)ccc2c1 (stereo not given),> 50 µM (inactive)
16,CCN(CC)CC(O)c1ccnc2c(O)cccc12 (stereo not given),> 50 µM (inactive)
17,COc1cc(NCCCCN)c2ncccc2c1,> 50 µM (inactive)
18,COc1cc(NC(C)CCCNC(C)C)c2ncccc2c1 (stereo not given),> 50 µM (inactive)
19,N#Cc1cc(S(=O)(=O)Nc2ccc(F)c(-c3c(O)ccc4c3OCO4)c2)ccc1F,> 50 µM (inactive)
20,COc1ccc(Oc2c(OC)cc(NCCCCCNC(C)C)c3ncccc23)cc1,> 50 µM (inactive)
21,CCC(CC)NCCCNc1cc(OC)cc2cccnc12,> 50 µM (inactive)
22,Nc1ccc(Nc2nc3ccccc3s2)c(O)c1,> 50 µM (inactive)

# Same assay, conditions: top dose 60 µM
Compound,IC50,pIC50
COc1ccc2c(c1-c1cc(NS(=O)(=O)c3cccc(N)c3)ccc1N)OCO2,> 60 µM (inactive),–
Cc1ccc(S(=O)(=O)Nc2ccc(O)c(-c3ccccc3O)c2)cc1,> 60 µM (inactive),–
COc1ccc(NS(=O)(=O)c2ccccc2)c(OC)c1,> 60 µM (inactive),–
Nc1ccc(NS(=O)(=O)c2ccccc2)c(O)c1,> 60 µM (inactive),–
N#Cc1cc(S(=O)(=O)Nc2cc(O)cc3cccnc23)ccc1F,33.8 µM (inactive),–
O=S(=O)(Nc1cc(O)cc2cccnc12)c1ccc(F)cc1,> 60 µM (inactive),–
Nc1cccc(S(=O)(=O)Nc2ccc(O)c(-c3ccccc3O)c2)c1,> 60 µM (inactive),–
NCc1cc(S(=O)(=O)Nc2cc(O)cc3cccnc23)ccc1F,–,4.79
COc1ccc(S(=O)(=O)Nc2ccc(O)c(-c3ccccc3O)c2)cc1OC,> 60 µM (inactive),–
COc1ccc2c(c1-c1cc(NS(=O)(=O)c3cc(Cl)ccc3Cl)ccc1N)OCO2,> 60 µM (inactive),–
COc1ccc(S(=O)(=O)Nc2ccc(N)c(-c3ccccc3O)c2)cc1OC,> 60 µM (inactive),–
O=S(=O)(Nc1ccc(O)c(-c2ccccc2O)c1)c1cc(Cl)ccc1Cl,> 60 µM (inactive),–
Nc1cccc(S(=O)(=O)Nc2ccc(N)c(-c3ccccc3O)c2)c1,> 60 µM (inactive),–
Nc1ccc(NS(=O)(=O)c2ccccc2N)cc1-c1ccccc1O,> 60 µM (inactive),–
CCOc1ccc2ccccc2c1-c1cc(NS(=O)(=O)c2ccc(OC)c(OC)c2)ccc1N,> 60 µM (inactive),–
COc1ccc2c(c1-c1cc(NS(=O)(=O)c3ccc(C)cc3)ccc1N)OCO2,> 60 µM (inactive),–
CCOc1ccc2ccccc2c1-c1cc(NS(=O)(=O)c2ccc(C)cc2)ccc1N,> 60 µM (inactive),–
Nc1ccc(NS(=O)(=O)c2cccc([N+](=O)[O-])c2)cc1-c1ccccc1O,> 60 µM (inactive),–
COc1cc(C2CC(c3ccccc3O)=NN2)ccc1O (stereo not given),51 µM (inactive),–
O=S(=O)(Nc1ccc(Cl)cc1O)c1ccccc1,> 60 µM (inactive),–
CC(C)(C)OC(=O)Nc1cccc(NS(=O)(=O)c2cc(Cl)ccc2Cl)c1-c1ccccc1O,48.2 µM (inactive),–
Nc1ccc(NS(=O)(=O)c2ccccc2[N+](=O)[O-])cc1-c1ccccc1O,> 60 µM (inactive),–
COc1ccc(C2CC(c3ccccc3O)=NN2)cc1OC (stereo not given),52.3 µM (inactive),–
Cc1ccc(S(=O)(=O)Nc2ccc(N)c(-c3ccccc3O)c2)cc1,> 60 µM (inactive),–
CCOc1ccc2ccccc2c1-c1cc(NS(=O)(=O)c2cc(Cl)ccc2Cl)ccc1N,> 60 µM (inactive),–
O=[N+]([O-])c1cccc(S(=O)(=O)Nc2ccc(O)c(-c3ccccc3O)c2)c1,> 60 µM (inactive),–
CCOc1ccc2ccccc2c1-c1cc(NS(=O)(=O)c2cc(Cl)ccc2Cl)ccc1NC(=O)OC(C)(C)C,> 60 µM (inactive),–
COc1ccc2c(c1-c1cc(NS(=O)(=O)c3cccc([N+](=O)[O-])c3)ccc1N)OCO2,> 60 µM (inactive),–
Nc1ccc(NS(=O)(=O)c2cc(Cl)ccc2Cl)cc1-c1ccccc1O,> 60 µM (inactive),–
O=[N+]([O-])c1ccc(NS(=O)(=O)c2ccccc2)c(O)c1,> 60 µM (inactive),–
